{
  "source": "patent US20030143608A1",
  "about": "“Drug response marker in beta-1 adrenergic receptor gene” (Myriad Genetics, Incorporated, priority 2001, published 2003)",
  "tested_on": "patients with symptoms diagnosed as hypertension",
  "test": "Antihypertensive drug response by beta-1 adrenergic receptor A145G genotype in hypertensive patients",
  "type": "in vivo, human",
  "settings": "for Average Change in Blood Pressure: Sardinian hypertensive patients, atenolol 100 mg b.i.d., HCTZ 25 mg u.i.d. or fosinopril 20 mg u.i.d. for 2 months, change from baseline",
  "method": "For our study, three drugs—fosinopril, atenolol, and hydrochlorothiazide—were administered to patients with symptoms diagnosed as hypertension (a diastolic blood pressure above 89 mmHg and a systolic blood pressure above 139 mmHg). Since essential hypertension is a complex multifactorial disease with an environmental component and a genetic interaction basis, we selected a […] patient sample from Sardinia, which ensured genetic homogeneity. Piazza, Science 260:1767-9 (1993). Patients were unrelated Sardinian from at least 2 generations. Approximately 75% of the patients were previously untreated for hypertension, whereas the remaining were absent from antihypertensive treatment for at least 6 months prior to testing, thus ensuring that modifications in blood pressure during the study were mostly due to the drug under study and not the spurious effects related to previous treatments.\nAfter a 2-month pre-treatment period, during which blood pressure was measured periodically, patients with blood pressure (as average of 3 measurements performed in standard conditions) still over 140/90 (n=494) where randomly assigned to one of the following drugs: atenolol 100 mg b.i.d., hydrochlorothiazide (HCTZ) 25 mg u.i.d. or fosinopril 20 mg u.i.d. for 2 months. After a treatment was begun, patient blood pressure, heart rate and body weight were assessed every 2 weeks, and values at +4 and +8 weeks tabulated and considered for analysis.\nGenomic DNA was extracted from the leukocytes of each individual using a genomic DNA extraction kit based on […]. Genomic DNA of the beta-1 adrenergic receptor gene was then amplified using standard PCR procedures. The PCR product was diluted 1:10 in EDTA 1 mM and then submitted for automated sequencing carried out with an Applied Biosystems Sequencer using dye primer chemistry.\nTo evaluate the association between each patient's genotype and the response of the individual to the respective drug, the change in blood pressure was analyzed from the baseline to the follow-up measurements at 4 and 8 weeks. A linear regression model was then used to adjust for the effect of baseline blood pressure levels and sex of the individual. The difference in average change of blood pressure between genotypes for each time interval was determined through analysis of covariance.",
  "key": {"[1]": {"settings": "genotype AA (homozygous wild-type)"}, "[2]": {"settings": "genotype GG (homozygous A145G variant)"}},
  "data": [
    {"smiles": "CCC(=O)O[C@@H](O[P@](=O)(CCCCc1ccccc1)CC(=O)N1C[C@H](C2CCCCC2)C[C@H]1C(=O)O)C(C)C", "note": "[Fosinopril, fosinopril]", "values": [
      {"measurement": "Average Change in Blood Pressure", "setting": "[1]", "value": "−12.3", "unit": "mmHg"},
      {"measurement": "Average Change in Blood Pressure", "setting": "genotype AG (heterozygous)", "value": "−8.6", "unit": "mmHg"},
      {"measurement": "Average Change in Blood Pressure", "setting": "[2]", "value": "−23.0", "unit": "mmHg"}
    ]},
    {"smiles": "CC(C)NCC(O)COc1ccc(CC(N)=O)cc1", "note": "(stereo not shown) [Atenolol, atenolol]", "values": [
      {"measurement": "Average Change in Blood Pressure", "setting": "[1]", "value": "−17.3", "unit": "mmHg"},
      {"measurement": "Average Change in Blood Pressure", "setting": "genotype AG (heterozygous)", "value": "−17.9", "unit": "mmHg"},
      {"measurement": "Average Change in Blood Pressure", "setting": "[2]", "value": "−10.6", "unit": "mmHg"}
    ]},
    {"smiles": "NS(=O)(=O)c1cc2c(cc1Cl)NCNS2(=O)=O", "note": "[Hydrochlorothiazide, hydrochlorothiazide]", "values": [
      {"measurement": "Average Change in Blood Pressure", "setting": "[1]", "value": "−10.2", "unit": "mmHg"},
      {"measurement": "Average Change in Blood Pressure", "setting": "genotype AG (heterozygous)", "value": "−12.9", "unit": "mmHg"},
      {"measurement": "Average Change in Blood Pressure", "setting": "[2]", "value": "−30.5", "unit": "mmHg"},
      {"measurement": "relative blood pressure response between drugs", "setting": "individuals homozygous for A145G (GG), analysis of covariance, adjusted for baseline blood pressure and sex", "value": "more likely (p=0.0055) to experience a significant decrease in blood pressure"}
    ]}
  ]
}
